Test [1] is described as follows: Inhibition of BRD4 in human HEL cells harboring JAK2 V617F mutant assessed as decrease in metabolic activity measured after 72 hrs by MTT assay. In general terms: Formazan colour is commonly taken as a measure of viable cells.
Test [2] in a line: Inhibition of BRD4 in human MOLM-14 cells harboring FLT3-ITD mutant assessed as decrease in metabolic activity measured after 72 hrs by MTT assay.

What is called IC50 is the midpoint of a concentration-inhibition curve. For `CN1Cc2cc(N=[S@@](C)(=O)c3ccccc3)ccc2NC1=O`, the values for the IC50 in test [1] and in test [2] were 0.5 µM and 1 µM, respectively.

The values are drawn from BindingDB's records for doi:10.1021/acsmedchemlett.9b00625 (Rwth Aachen University, 2020).
